Assay results: patent publication US20260001871A1, “TRIAZOLE DERIVATIVES AS MODULATORS OF MAS-RELATED G-PROTEIN RECEPTOR D” (ESCIENT PHARMACEUTICALS, INC., priority 2022, published 2026)

Biological target: human MRGPRD (Homo sapiens, UniProt Q8TDS7)
Assay: MRGPRD antagonist activity, IP-One HTRF assay in CHO cells stably expressing human MRGPRD (versus 100 μM β-Alanine agonist)
Type: cell-based
In short: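 IP-1 HTRF read-out, with IC50 from HTRF ratio curves and percent antagonism relative to maximal efficacy (mean, SEM). Antagonists and agonist were co-incubated 1 h at 37 °C plus 1 h at room temperature on overnight-plated MRGPRD-CHO cells in LiCl-containing Tris buffer, pH 8.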

human MRGPRD, sequence (Q8TDS7 whole entry): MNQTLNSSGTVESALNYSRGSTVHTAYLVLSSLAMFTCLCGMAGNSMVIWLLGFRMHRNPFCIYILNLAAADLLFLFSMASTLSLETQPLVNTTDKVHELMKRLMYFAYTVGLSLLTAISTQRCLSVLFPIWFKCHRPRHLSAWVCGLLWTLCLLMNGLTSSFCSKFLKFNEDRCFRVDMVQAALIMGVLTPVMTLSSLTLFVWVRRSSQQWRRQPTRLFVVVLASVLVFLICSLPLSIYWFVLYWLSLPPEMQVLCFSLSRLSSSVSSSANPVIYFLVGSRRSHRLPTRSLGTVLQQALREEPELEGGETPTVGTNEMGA

SMILES	IC50
COc1cc(-c2ccc(-n3nnc(C(=O)Nc4ccncc4)c3C3CC3)cc2)n[nH]1 [Compound 7-138]	500 to 1000 nM
Cc1nn(C)c(C)c1-c1ccc(-n2nnc(C(=O)NC3(c4cccnc4)CC3)c2C2CC2)cc1 [Compound 18-17]	1000 to 3000 nM
CC(=O)c1ccc(-c2cccc(-n3nnc(C(=O)Nc4ccncc4)c3C3CC3)c2)cc1C [Compound 7-249]	500 to 1000 nM
Cc1ccncc1CNC(=O)c1nnn(-c2ccc(-c3c(C)nn(-c4ccccc4)c3C)cc2)c1C1CC1 [Compound 9-26]	500 to 1000 nM
Cc1nn(C)c(C)c1-c1ccc(-n2nnc(C(=O)Nc3ccncc3)c2C2CC2)cc1C(F)(F)F [Compound 7-331]	> 3000 nM
Cc1ccc(CNC(=O)c2nnn(-c3cccc(-c4ccn(C)n4)c3)c2C2CC2)cn1 [Compound 7-332]	> 3000 nM
Cc1nn(-c2ccccc2)c(C)c1-c1ccc(-n2nnc(C(=O)NC3(c4cncc(Cl)c4)CC3)c2C2CC2)cc1 [Compound 9-8]	100 to 500 nM
CCn1cc(C2(NC(=O)c3nnn(-c4ccc(-c5ccc(C#N)c(F)c5)cc4)c3C(C)C)CC2)cn1 [Compound 17-23]	100 to 500 nM
N#CCc1cccc(-c2ccc(-n3nnc(C(=O)Nc4ccncc4)c3C3CC3)cc2)c1 [Compound 7-30]	100 to 500 nM
CCc1ccc(-c2ccc(-n3nnc(C(=O)Nc4ccnc(C)c4)c3C3CC3)cc2)cn1 [Compound 15-23]	100 to 500 nM
Cc1cc(-c2ccc(-n3nnc(C(=O)Nc4ccncc4)c3C3CC3)cc2)sn1 [Compound 7-191]	1000 to 3000 nM
O=C(Nc1ccncc1)c1nnn(-c2cccc(O)c2)c1C1CC1 [Compound 4-7]	1000 to 3000 nM
Cc1nn(CC(F)(F)F)c(C)c1-c1ccc(-n2nnc(C(=O)Nc3ccncc3)c2C2CC2)cc1 [Compound 7-17]	< 100 nM
CCn1nc(C)c(-c2ccc(-n3nnc(C(=O)NCc4cnn(C)c4)c3C3CC3)cc2)c1C [Compound 9-18]	100 to 500 nM
Cc1ccc(-n2nnc(C(=O)Nc3cc(F)nc(F)c3)c2C2CC2)cc1 [Compound 1-5]	500 to 1000 nM
O=C(NC1CC(F)(F)C1)c1nnn(-c2ccc(-c3ccccc3)cc2)c1C1CC1 [Compound 14-56]	1000 to 3000 nM
CC(C)Oc1ccc(-c2ccc(-n3nnc(C(=O)Nc4ccncc4)c3C3CC3)cc2)cc1 [Compound 7-131]	500 to 1000 nM
CC(C)n1cc(-c2cccc(-n3nnc(C(=O)Nc4ccncc4)c3C3CC3)c2)cn1 [Compound 7-251]	500 to 1000 nM
Cn1cc(-c2ccc(-n3nnc(C(=O)Nc4ccncc4)c3C3CC3)cc2)c(C2CC2)n1 [Compound 7-218]	> 3000 nM
O=C(Nc1ccncc1)c1nnn(-c2cccc(-c3cnn(CC4CC4)c3)c2)c1C1CC1 [Compound 7-241]	500 to 1000 nM
CC(=O)c1ccc(-c2ccc(-n3nnc(C(=O)Nc4ccncc4)c3C3CC3)cc2C)cc1 [Compound 7-238]	100 to 500 nM
CC(C)n1cc(-c2cc(-n3nnc(C(=O)Nc4ccncc4)c3C3CC3)ccc2F)cn1 [Compound 7-289]	1000 to 3000 nM
CCc1ccccc1-c1ccc(-n2nnc(C(=O)Nc3ccncc3)c2C2CC2)cc1 [Compound 7-208]	1000 to 3000 nM
Cc1nn(C)c(C)c1-c1ccc(-n2nnc(C(=O)NCc3nc4ccccc4n3C)c2C2CC2)cc1 [Compound 7-209]	1000 to 3000 nM
Cc1ccc(-n2nnc(C(=O)Nc3ccnc(C(F)(F)F)c3)c2C(C)C)cc1 [Compound 24-1, 5-isopropyl-1-(p-tolyl)-N-(2-(trifluoromethyl)pyridin-4-yl)-1H-1,2,3-triazole-4-carboxamide]	1000 to 3000 nM
O=C(Nc1ccncc1)c1nnn(-c2csc3ccccc23)c1C1CC1 [Compound 4-10]	1000 to 3000 nM

SMILES	IC50
CC(NC(=O)c1nnn(-c2ccc(-c3ccccc3)cc2)c1C1CC1)c1nccs1 (stereo not drawn) [Compound 14-3]	> 3000 nM
O=C(Nc1ccncc1)c1nnn(-c2ccc(-c3ccc(CO)cc3)cc2)c1C1CC1 [Compound 7-69]	100 to 500 nM
Cc1ncccc1CNC(=O)c1nnn(-c2ccc(-c3ccc(C#N)c(F)c3)cc2)c1C1CC1 [Compound 16-1, 1-(4′-cyano-3′-fluoro-[1,1′-biphenyl]-4-yl)-5-cyclopropyl-N-((2-methylpyridin-3-yl)methyl)-1H-1,2,3-triazole-4-carboxamide]	< 100 nM
Cn1cnc(-c2ccc(-n3nnc(C(=O)Nc4ccncc4)c3C3CC3)cc2)c1 [Compound 7-124]	500 to 1000 nM
Cc1nn(C)c(C)c1-c1ccc(-n2nnc(C(=O)NC(C)c3cnn(C)c3)c2C2CC2)cc1 (stereo not drawn) [Compound 15-4, 5-cyclopropyl-N-(1-(1-methyl-1H-pyrazol-4-yl)ethyl)-1-(4-(1,3,5-trimethyl-1H-pyrazol-4-yl)phenyl)-1H-1,2,3-triazole-4-carboxamide]	500 to 1000 nM
Cc1cccc(-c2cccc(-n3nnc(C(=O)Nc4ccncc4)c3C3CC3)c2)c1 [Compound 7-321]	1000 to 3000 nM
CCc1ccc(-n2nnc(C(=O)Nc3ccncc3)c2C2CC2)cc1 [Compound 3-2]	1000 to 3000 nM
Cc1cc(-c2ccc(-n3nnc(C(=O)Nc4ccncc4)c3C3CC3)cc2)ccc1C#N [Compound 7-60]	100 to 500 nM
N#Cc1cccc(-c2ccc(-n3nnc(C(=O)Nc4ccncc4)c3C3CC3)cc2)c1 [Compound 7-139]	500 to 1000 nM
COc1ncc(-c2ccc(-n3nnc(C(=O)Nc4ccncc4)c3C3CC3)cc2)cn1 [Compound 7-194]	1000 to 3000 nM
O=C(Nc1cccc(-n2cncn2)c1)c1nnn(-c2ccc(-c3ccccc3)cc2)c1C1CC1 [Compound 14-24]	500 to 1000 nM
CC(=O)c1ccc(-c2ccc(-n3nnc(C(=O)Nc4ccncc4)c3C3CC3)cc2)s1 [Compound 7-147]	500 to 1000 nM
COc1ccc(-c2ccc(-n3nnc(C(=O)Nc4ccncc4)c3C3CC3)cc2)c(C)c1 [Compound 7-34]	100 to 500 nM
O=C(Nc1ccncc1)c1nnn(-c2ccc(-c3cccc(C4CCCCC4)c3)cc2)c1C1CC1 [Compound 7-166]	1000 to 3000 nM
O=C(Nc1ccncc1)c1nnn(-c2ccc(-c3cccc(O)c3)cc2)c1C1CC1 [Compound 7-170]	1000 to 3000 nM
Cc1cc(NC(=O)c2nnn(C3CCC(c4c(C)nn(C)c4C)CC3)c2C2CC2)ccn1 (stereo not drawn) [Compound 13-1, 5-cyclopropyl-N-(2-methylpyridin-4-yl)-1-(4-(1,3,5-trimethyl-1H-pyrazol-4-yl)cyclohexyl)-1H-1,2,3-triazole-4-carboxamide]	1000 to 3000 nM
Cc1nnc(-c2ccc(-n3nnc(C(=O)Nc4ccncc4)c3C3CC3)cc2)o1 [Compound 7-1]	> 3000 nM
Cc1nn(C)c(C)c1-c1ccc(-n2nnc(C(=O)Nc3ccncc3)c2C2CC2)cc1 [Compound 7-33]	100 to 500 nM
CCn1cc(NC(=O)c2nnn(-c3ccc(-c4ccccc4)cc3)c2C2CC2)c(C#N)n1 [Compound 14-78]	> 3000 nM
Cc1ccc(CNC(=O)c2nnn(-c3ccc(-c4c(C)nn(C)c4C)cc3)c2C2CC2)cn1 [Compound 15-12]	100 to 500 nM
Cc1ccc(CNC(=O)c2nnn(-c3cccc(-c4ccn(C5CCC5)n4)c3)c2C2CC2)cn1 [Compound 7-278]	500 to 1000 nM
COc1ccccc1-c1ccc(-n2nnc(C(=O)Nc3ccncc3)c2C2CC2)cc1C [Compound 7-261]	500 to 1000 nM
Cc1cc(NC(=O)c2nnn(-c3ccc(-c4ccc(CC#N)cc4)cc3)c2C2CC2)ccn1 [Compound 15-1]	< 100 nM
O=C(Nc1ccncc1)c1nnn(-c2cccc(-c3cccc(O)c3)c2)c1C1CC1 [Compound 7-299]	1000 to 3000 nM
Cn1c(CNC(=O)c2nnn(-c3ccc(-c4ccc(C#N)cc4)cc3)c2C2CC2)nc2ccccc21 [Compound 15-5]	500 to 1000 nM
